Data: PMC10301922, “Anti-Oxidant, Anti-Mutagenic Activity and Safety Evaluation of Antrocin” (Toxics, 2023)
Like-named read-outs stand apart in the source and are kept apart here.

What was measured:
[1] = test system: Salmonella typhimurium TA100
[2] = test system: Salmonella typhimurium TA98
[3] = test system: Salmonella typhimurium TA1535; assay: Antimutagenicity test, TA1535
[4] = test system: Salmonella typhimurium TA98; assay: Ames test (plate incorporation), TA98; conditions: TA98, with S9, positive reagent 5 μg/plate
[5] = test system: Salmonella typhimurium TA102; assay: Ames test (plate incorporation), TA102; conditions: TA102, with S9, positive reagent 5 μg/plate
[6] = test system: Salmonella typhimurium TA1535; assay: Ames test (plate incorporation), TA1535; conditions: TA1535, with S9, positive reagent 5 μg/plate
[7] = test system: Salmonella typhimurium TA1537; assay: Ames test (plate incorporation), TA1537; conditions: TA1537, with S9, positive reagent 5 μg/plate
[8] = test system: Sprague Dawley rats; conditions: rat, in vivo, po, 7.5 mg/kg
[9] = test system: Sprague Dawley rats; conditions: rat, in vivo, po, 7.5 mg/kg; remark: listed apart in the source
[10] = test system: Sprague Dawley rats; conditions: rat, in vivo, po, 7.5 mg/kg; remark: listed apart in the source
[11] = test system: Sprague Dawley rats; conditions: rat, in vivo, 7.5 mg/kg
[12] = test system: Wistar rats; parameters: method as in earlier work; conditions: 28-day oral; cited from earlier work
[13] = test system: CHO-K1 cells; conditions: with S9 (3 h), 25 μg/mL, positive control
Experimental: A chromosomal aberration test was performed to evaluate the potential for antrocin to induce structural chromosomal abnormalities in Chinese hamster ovary cells (CHO-K1 cells). The test followed the protocol in Genetic Toxicology Testing: A Laboratory Manual. CHO-K1 cells were obtained from the Bioresource Collection and Research Center (BCRC), and were cultured in Ham F-12 medium with 10% fetal bovine serum and 0.1% Penicillin–Streptomycin at 5% CO2 in a 37 °C incubator. […] Three experimental conditions were conducted: 3 h with and without S9 (short term), and 19 h without S9 (long term). […] CHO-K1 cells were cultured in 25T flasks, incubated with samples for 3 or 19 h with and without S9, and harvested at the time of 1.5 cell cycle lengths (about 21 h). Two hours before harvesting, 100 μL colcemid (10 μg/mL) was added to disrupt cell mitosis. Collected cells were then treated with 0.6% KCl solution and fixed with acetic acid–methanol (1:3) solution. After fixation, cells were stained with Diff-Quik on a glass slide. A total of 300 cells in metaphase per group were observed, and the number of chromosomal aberrations was recorded. The chromosomal aberration rate (%) was calculated using the following formula: (number of cells with aberrations/total number of cells examined) × 100. A Student’s t-test was used for statistical analysis, and a significant increase (p < 0.05) compared to the negative control indicated a positive response.

[14] = test system: ICR male mice; assay: In vivo mammalian erythrocyte micronucleus test; conditions: for Mn-RETs/1000RETs (‰) / RETs/1000RBCs (‰): 60 mg/kg bw ip; for frequencies of micronuclei: positive control group (60 mg/kg ip)
[15] = female, Sprague Dawley, po, 28 days
[16] = male, Sprague Dawley, po, 28 days

Compound: Nc1ccc2cc3ccccc3cc2c1 [2-AA, 2-aminoanthracene, reference compound]
- Number of Revertant ([1]; TA100, with S9, positive reagent 5 μg/plate): 2099.7 ± 145.5 Colony/Plate
- reverse mutants, times more than the negative control group ([2]; TA98, with S9, 25 μg/plate): about 275 times
- Number of Revertant ([2]; TA98, with S9, positive reagent alone 25 μg/plate): 6055.0 ± 661.0 Colony/Plate
- reverse mutants, times more than the negative control group ([3]; TA1535, with S9, 25 μg/plate): about 23 times
- Number of Revertant ([3]; TA1535, with S9, positive reagent alone 25 μg/plate): 270.3 ± 7.5 Colony/Plate
- Number of Revertant [4]: 1881.3 ± 434.2 Colony/Plate
- Number of Revertant [5]: 1532.0 ± 204.2 Colony/Plate
- Number of Revertant [6]: 535.0 ± 138.6 Colony/Plate
- Number of Revertant [7]: 269.0 ± 21.9 Colony/Plate

Compound: [N-]=[N+]=[N-].[Na+] [sodium azide, reference compound]
- Number of Revertant ([1]; TA100, without S9, positive reagent 5 μg/plate): 2223.0 ± 53.2 Colony/Plate
- reverse mutants, times more than the negative control group ([3]; TA1535, without S9, 5 μg/plate): about 122 times
- Number of Revertant ([3]; TA1535, without S9, positive reagent alone 5 μg/plate): 1313.0 ± 42.0 Colony/Plate

Compound: CNC(=O)c1cc(Oc2ccc(NC(=O)Nc3ccc(Cl)c(C(F)(F)F)c3)cc2)ccn1 [Sorafenib, sorafenib]
- BASO [8]: 0.1 ± 0.1%
- GGT [9]: <1 U/L
- TB [9]: <0.1 mg/dL
- Brain [10]: 2.0 ± 0.1 g
- Adrenal gland: Congestion, cortex, focal, slight; incidence [11, 15]: 1/5
- Bone, femur: Hypertrophy, epiphysis, diffuse, slight to moderate/severe; incidence [11, 15]: 5/5
- Kidney: Cast, tubule, focal, slight; incidence [11, 15]: 1/5
- Kidney: Infarct, tubule, focal, slight; incidence [11, 15]: 1/5
- Ovary: Increase, follicle, multifocal, moderate to moderate/severe; incidence [11, 15]: 4/4
- Adrenal gland: Congestion, cortex, multifocal, slight; incidence [11, 16]: 1/5
- Bone marrow, femur: Hypocellularity, diffuse, slight to moderate/severe; incidence [11, 16]: 3/5
- Bone marrow, sternum: Hypocellularity, diffuse, moderate; incidence [11, 16]: 3/5
- Bone, femur: Hypertrophy, epiphysis, diffuse, slight to moderate/severe; incidence [11, 16]: 5/5
- Epididymis: Granuloma, spermatic, focal, moderate; incidence [11, 16]: 1/5
- Heart: Infiltration, mononuclear cell, focal, minimal to slight; incidence [11, 16]: 1/5
- Kidney: Cast, tubule, focal, minimal; incidence [11, 16]: 3/5
- Spleen: Atrophy, red pulp, diffuse, slight to moderate; incidence [11, 16]: 5/5
- Salivary gland, Sublingual lobe: histopathological lesions [11]: -
- Aorta: histopathological lesions ([11]; po): -
- Cervix: histopathological lesions ([11]; po): -
- Coagulative gland: histopathological lesions ([11]; po): -
- Esophagus: histopathological lesions ([11]; po): -
- Eyes: histopathological lesions ([11]; po): -
- Harderian gland: Infiltration, mononuclear cell, focal, minimal; incidence ([11]; po): -
- Harderian gland: histopathological lesions ([11]; po): -
- Heart: histopathological lesions ([11]; po): -
- Intestine, large, Caecum: histopathological lesions ([11]; po): -
- Intestine, large, Colon: histopathological lesions ([11]; po): -
- Intestine, large, Rectum: histopathological lesions ([11]; po): -
- Intestine, small, Duodenum: histopathological lesions ([11]; po): -
- Intestine, small, Ileum: histopathological lesions ([11]; po): -
- Intestine, small, Jejunum: histopathological lesions ([11]; po): -
- Kidney: Cyst, tubule, focal, slight; incidence ([11]; po): -
- Liver: Fatty change, multifocal, slight; incidence ([11]; po): -
- Liver: histopathological lesions ([11]; po): -
- Lung: histopathological lesions ([11]; po): -
- Lymph node, Cervical: histopathological lesions ([11]; po): -
- Lymph node, Mesenteric: histopathological lesions ([11]; po): -
- Lymph node: histopathological lesions ([11]; po): -
- Mammary gland: histopathological lesions ([11]; po): -
- Optic nerve: histopathological lesions ([11]; po): -
- Oviduct: histopathological lesions ([11]; po): -
- Pancreas: histopathological lesions ([11]; po): -
- Parathyroid gland: histopathological lesions ([11]; po): -
- Pituitary: histopathological lesions ([11]; po): -
- Prostate gland: Infiltration, mononuclear cell, focal, minimal to slight; incidence ([11]; po): -
- Salivary gland, Mandibular lobe: histopathological lesions ([11]; po): -
- Salivary gland: histopathological lesions ([11]; po): -
- Sciatic nerve: histopathological lesions ([11]; po): -
- Seminal vesicle: histopathological lesions ([11]; po): -
- Skeletal muscle: histopathological lesions ([11]; po): -
- Skin: histopathological lesions ([11]; po): -
- Spinal cord: histopathological lesions ([11]; po): -
- Spleen: histopathological lesions ([11]; po): -
- Stomach: histopathological lesions ([11]; po): -
- Testis: histopathological lesions ([11]; po): -
- Thymus: histopathological lesions ([11]; po): -
- Thyroid gland: histopathological lesions ([11]; po): -
- Tongue: histopathological lesions ([11]; po): -
- Trachea: histopathological lesions ([11]; po): -
- Urinary bladder: histopathological lesions ([11]; po): -
- Uterus: histopathological lesions ([11]; po): -
- Vagina: histopathological lesions ([11]; po): -
- dose above which abnormality was found (clinical observation, hematology, biochemistry, histopathology) [12]: above 25 mg/kg

Compound: O=P1(N(CCCl)CCCl)NCCCO1 (stereo not drawn) [Cyclophosphamide, cyclophosphamide, reference compound]
- Frequency of Chromosomal Aberration (%) [13]: 15.3 ± 2.3%
- Total Aberrations [13]: 46/300
- Mn-RETs/1000RETs (‰) ([14]; 48 h): 22.9 ± 12.2 ‰
- RETs/1000RBCs (‰) ([14]; 48 h): 3.6 ± 2.1 ‰
- frequencies of micronuclei ([14]; 48 h): 3.6 ± 2.1 ‰
- Mn-RETs/1000RETs (‰) ([14]; 72 h): 6.8 ± 3.7 ‰
- RETs/1000RBCs (‰) ([14]; 72 h): 3.9 ± 2.1 ‰
- frequencies of micronuclei ([14]; 72 h): 3.9 ± 2.1 ‰
